One data set concerns the target T1, ALK2/ACVR1 (Homo sapiens, UniProt Q04771).
T1 sequence (Q04771 21-509): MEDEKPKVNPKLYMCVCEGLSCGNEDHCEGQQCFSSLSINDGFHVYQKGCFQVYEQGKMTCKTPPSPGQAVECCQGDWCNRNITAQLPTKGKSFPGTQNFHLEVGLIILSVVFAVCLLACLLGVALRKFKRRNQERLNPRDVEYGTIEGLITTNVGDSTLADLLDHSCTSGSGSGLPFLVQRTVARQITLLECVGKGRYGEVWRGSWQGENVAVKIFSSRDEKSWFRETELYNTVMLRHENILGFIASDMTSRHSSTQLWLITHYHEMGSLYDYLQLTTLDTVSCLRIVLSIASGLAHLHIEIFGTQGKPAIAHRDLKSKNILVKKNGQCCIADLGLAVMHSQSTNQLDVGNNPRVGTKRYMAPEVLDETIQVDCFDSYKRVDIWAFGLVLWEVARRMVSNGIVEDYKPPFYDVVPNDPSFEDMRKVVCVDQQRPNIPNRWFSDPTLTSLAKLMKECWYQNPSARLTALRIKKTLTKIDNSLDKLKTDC
In words: Kinase assay (33P-ATP filter-binding), ALK2. It counts as biochemical. The conditions noted are these: 20 mM; read-out: Kinase Selectivity ALK2/ACVR1 (20 mM). A digest of the protocol: (§1)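 Substrate in 20 mM Hepes pH 7.5, 10 mM MgCl2, 1 mM EGTA, 0.02% Brij35, 0.02 mg/ml BSA, 0.1 mM Na3VO4, 2 mM DTT, 1% DMSO with kinase; compound preincubated 20 minutes at room temperature. 33P-ATP then started the reaction, run 2 hours at room temperature, with P81 filter-binding read-out.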

In a further data set the target is T2, ALK2 (R206H) (Homo sapiens, UniProt Q04771, R206H).
T2 sequence (Q04771 21-509 R206H): T1 sequence (Q04771 21-509) with R186H
The experiment in a line: Kinase assay (33P-ATP filter-binding), ALK2 R206H. To be noted: R206H mutant, 20 mM; read-out: Kinase Selectivity ALK2 (R206H, 20 mM). It counts as biochemical. A digest of the protocol:
as §1

For another data set, the target named is T3, ALK4 (Homo sapiens, UniProt P36896).
T3 sequence (P36896 24-505): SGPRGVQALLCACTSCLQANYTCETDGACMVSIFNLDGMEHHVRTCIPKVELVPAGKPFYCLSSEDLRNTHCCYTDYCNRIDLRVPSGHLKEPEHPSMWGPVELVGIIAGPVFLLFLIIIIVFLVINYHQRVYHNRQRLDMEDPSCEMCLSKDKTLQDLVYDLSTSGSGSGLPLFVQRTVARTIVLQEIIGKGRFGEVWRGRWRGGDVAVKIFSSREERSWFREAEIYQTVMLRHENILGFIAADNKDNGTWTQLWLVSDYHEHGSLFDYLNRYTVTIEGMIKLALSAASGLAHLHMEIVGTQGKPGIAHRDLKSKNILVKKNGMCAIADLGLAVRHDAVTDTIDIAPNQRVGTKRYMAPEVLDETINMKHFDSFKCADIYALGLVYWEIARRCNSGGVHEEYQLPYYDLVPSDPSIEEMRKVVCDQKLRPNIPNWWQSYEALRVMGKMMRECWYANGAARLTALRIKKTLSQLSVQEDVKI
The experiment in a line: Kinase assay (33P-ATP filter-binding), ALK4. It counts as biochemical. The conditions noted are these: read-out: Kinase Selectivity ALK4. The protocol: (§2) The kinase assays were carried out briefly as follows. Substrate was prepared in Base Reaction Buffer (20 mM Hepes (pH 7.5), 10 mM MgCl2, 1 mM EGTA, 0.02% Brij35, 0.02 mg/ml BSA, 0.1 mM Na3VO4, 2 mM DTT, 1% DMSO). The indicated kinases was delivered into the substrate solution and allowed to gently mix. Next, the specific compound was delivered in DMSO into the kinase mixture by Acoustic technology (Echo550; nanoliter range), and allowed to incubate for 20 minutes at room temperature. Next, ^33P-ATP was delivered into the reaction mixture to initiate the reaction and allowed to incubate at room temperature. After 2 hours, the reactions were spotted onto P81 ion exchange paper and the kinase activity is detected by the filter-binding method.

In a further data set the target is PDGFRb (Homo sapiens, UniProt P09619). The experiment in a line: Kinase assay (33P-ATP filter-binding), PDGFRb. It counts as biochemical. The conditions noted are these: read-out: Kinase Selectivity PDGFRb. The protocol:
as §2

Another data set is described as follows: Protein binding, human. It counts as in vitro ADME.

These results are taken from patent publication US10745400B2, “Inhibition of BMP signaling, compounds, compositions and uses thereof” (Vanderbilt University, priority 2018, dated 2020).

Each structure is given as a SMILES string. Numbering of substitutions follows the chain as printed.

Sequence of PDGFRb (P09619 33-1106, species assumed): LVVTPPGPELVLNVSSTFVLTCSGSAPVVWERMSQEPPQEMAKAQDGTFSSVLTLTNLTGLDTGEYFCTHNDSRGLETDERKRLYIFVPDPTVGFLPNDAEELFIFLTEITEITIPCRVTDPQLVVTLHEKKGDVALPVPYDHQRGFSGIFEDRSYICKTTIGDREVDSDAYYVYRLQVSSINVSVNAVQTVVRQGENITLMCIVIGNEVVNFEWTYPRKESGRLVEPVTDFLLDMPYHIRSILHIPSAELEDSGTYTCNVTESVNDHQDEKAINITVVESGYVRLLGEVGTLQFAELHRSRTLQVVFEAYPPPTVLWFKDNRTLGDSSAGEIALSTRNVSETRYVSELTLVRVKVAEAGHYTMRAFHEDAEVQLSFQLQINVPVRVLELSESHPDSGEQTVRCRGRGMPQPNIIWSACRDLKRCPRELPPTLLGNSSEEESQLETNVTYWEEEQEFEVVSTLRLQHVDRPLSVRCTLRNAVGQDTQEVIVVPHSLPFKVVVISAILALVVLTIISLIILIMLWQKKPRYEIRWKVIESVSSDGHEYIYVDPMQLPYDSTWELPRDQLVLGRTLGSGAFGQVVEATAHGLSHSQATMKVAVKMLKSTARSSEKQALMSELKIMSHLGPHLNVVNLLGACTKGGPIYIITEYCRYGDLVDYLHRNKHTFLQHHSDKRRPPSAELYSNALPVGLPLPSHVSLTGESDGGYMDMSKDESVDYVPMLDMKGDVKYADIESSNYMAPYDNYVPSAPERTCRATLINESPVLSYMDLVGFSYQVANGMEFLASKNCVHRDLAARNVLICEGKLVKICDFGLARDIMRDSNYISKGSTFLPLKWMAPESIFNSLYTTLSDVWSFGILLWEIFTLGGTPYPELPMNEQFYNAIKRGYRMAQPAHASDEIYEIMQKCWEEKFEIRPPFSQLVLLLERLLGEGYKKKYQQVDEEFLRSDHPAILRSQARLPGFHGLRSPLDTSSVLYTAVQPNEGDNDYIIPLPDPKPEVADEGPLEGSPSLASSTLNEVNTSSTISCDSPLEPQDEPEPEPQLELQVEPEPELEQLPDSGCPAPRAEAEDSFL

For the compound `Cc1cc(-c2cnc3cc(-c4ccc(C5COC6(CCNCC6)CN5)cc4)ccn23)c2cc(F)cc(F)c2n1` (stereo not shown) [Compound 16], the IC50 is less than 0.0051 µM on ALK2/ACVR1, less than 0.0051 µM on ALK2 (R206H), 0.775 µM at ALK4 and 7.7 µM on PDGFRb. Besides, the “Protein Binding (% Free) Human” value in “Protein binding, human” was 5.61 % Free.
Take `Cc1cc(-c2cnc3cc(-c4ccc(C5COCC(C)N5)cc4)ccn23)c2cc(F)cc(F)c2n1` (stereo not shown) [Compound 23]: the IC50 at ALK2/ACVR1 is less than 0.0051 µM; on ALK2 (R206H), less than 0.0051 µM; on ALK4, 0.164 µM; at PDGFRb, 7.34 µM. Further, the “Protein Binding (% Free) Human” value in “Protein binding, human” was determined as 1.11 % Free.
With `Cc1cc(-c2cnc3cc(-c4ccc(C5COC6(CCNC6)CN5)cc4)ccn23)c2cc(F)cc(F)c2n1` (stereo not shown) [Compound 27], the IC50 at ALK2/ACVR1 was determined as 0.0291 µM; at ALK2 (R206H), 0.326 µM; at ALK4, 2.03 µM; at PDGFRb, 21.7 µM. Besides, the “Protein Binding (% Free) Human” value in “Protein binding, human” is 4.97 % Free.
On to `c1cnc2nccc(-c3cnc4cc(-c5ccc(C6CNCCN6)cc5)ccn34)c2c1` (stereo not shown) [Compound 32], for which the IC50 was found to be 0.0165 µM at ALK2/ACVR1, 0.0158 µM on ALK2 (R206H), 0.192 µM at ALK4 and 2.82 µM on PDGFRb. In “Protein binding, human”, the “Protein Binding (% Free) Human” value is recorded as 42.8 % Free.
In the case of `c1cc(-c2cnc3cc(-c4ccc(C5CNCCN5)cc4)ccn23)c2cccnc2c1` (stereo not shown) [Compound 33], the IC50 was less than 0.0051 µM on ALK2/ACVR1, less than 0.0051 µM at ALK2 (R206H), 0.775 µM on ALK4 and 7.7 µM at PDGFRb. Besides, the “Protein Binding (% Free) Human” value in “Protein binding, human” is listed as 11 % Free.
Regarding `O=C1CNC(=O)C(c2ccc(-c3ccn4c(-c5cccc6ncccc56)cnc4c3)cc2)N1` (stereo not shown) [Compound 36], the IC50 was less than 0.0051 µM on ALK2/ACVR1, less than 0.0051 µM at ALK2 (R206H), 0.39 µM on ALK4 and 6.93 µM on PDGFRb.
As to `NS(=O)(=O)c1ccc(-c2cnc3cc(-c4ccc(C5CNCCN5)cc4)ccn23)c2ccccc12` (stereo not shown) [Compound 37], the IC50 at ALK2/ACVR1 came to 0.0146 µM; at ALK2 (R206H), 0.0132 µM; on ALK4 it was 0.386 µM; at PDGFRb it was 6.49 µM. In addition, in the data set “Protein binding, human”, the “Protein Binding (% Free) Human” value is recorded as 11.7 % Free.
